In the NIST ThermoML archive (doi:10.1021/je700428f):
Numbers after ± are expanded uncertainties.

Experiment: xn = mol fraction of the nth substance listed
Settings: 101 kPa, Liquid; for viscosity: Capillary tube (Ostwald / Ubbelohde) method

COC(C)(C)C [2-methoxy-2-methylpropane] + CCCCCCCCCC
Settings | mass density [kg/m3] | viscosity [mPa·s]
273.15 K, x1 = 0.1016 | – | 1.2 ± 0.011
273.15 K, x1 = 0.1019 | 745.52 ± 0.54 | –
273.15 K, x1 = 0.2002 | – | 1.093 ± 0.011
273.15 K, x1 = 0.2041 | 746.17 ± 0.53 | –
273.15 K, x1 = 0.3003 | – | 1.004 ± 0.011
273.15 K, x1 = 0.3077 | 747.06 ± 0.53 | –
273.15 K, x1 = 0.3999 | 748 ± 0.53 | –
273.15 K, x1 = 0.4013 | – | 0.909 ± 0.01
273.15 K, x1 = 0.4992 | – | 0.822 ± 0.01
273.15 K, x1 = 0.5005 | 749.23 ± 0.52 | –
273.15 K, x1 = 0.6005 | – | 0.741 ± 0.01
273.15 K, x1 = 0.6066 | 750.84 ± 0.52 | –
273.15 K, x1 = 0.6866 | 752.32 ± 0.52 | –
273.15 K, x1 = 0.7 | – | 0.659 ± 0.009
273.15 K, x1 = 0.7973 | 754.83 ± 0.52 | –
273.15 K, x1 = 0.8005 | – | 0.584 ± 0.009
273.15 K, x1 = 0.8996 | – | 0.513 ± 0.009
273.15 K, x1 = 0.8999 | 757.82 ± 0.52 | –
273.15 K, x1 = 1 | 761.34 ± 0.5 | –
278.15 K, x1 = 0.1016 | – | 1.092 ± 0.011
278.15 K, x1 = 0.1019 | 741.7 ± 0.54 | –
278.15 K, x1 = 0.2002 | – | 1.002 ± 0.011
278.15 K, x1 = 0.2041 | 742.28 ± 0.54 | –
278.15 K, x1 = 0.3003 | – | 0.924 ± 0.01
278.15 K, x1 = 0.3077 | 743.09 ± 0.54 | –
278.15 K, x1 = 0.3999 | 743.94 ± 0.53 | –
278.15 K, x1 = 0.4013 | – | 0.841 ± 0.01
278.15 K, x1 = 0.4992 | – | 0.765 ± 0.01
278.15 K, x1 = 0.5005 | 745.06 ± 0.53 | –
278.15 K, x1 = 0.6005 | – | 0.689 ± 0.01
278.15 K, x1 = 0.6066 | 746.53 ± 0.53 | –
278.15 K, x1 = 0.6866 | 747.9 ± 0.53 | –
278.15 K, x1 = 0.7 | – | 0.615 ± 0.009
278.15 K, x1 = 0.7973 | 750.21 ± 0.53 | –
278.15 K, x1 = 0.8005 | – | 0.547 ± 0.009
278.15 K, x1 = 0.8996 | – | 0.481 ± 0.009
278.15 K, x1 = 0.8999 | 752.99 ± 0.52 | –
278.15 K, x1 = 1 | 756.14 ± 0.51 | –
283.15 K, x1 = 0.1016 | – | 1.001 ± 0.011
283.15 K, x1 = 0.1019 | 737.88 ± 0.55 | –
283.15 K, x1 = 0.2002 | – | 0.923 ± 0.01
283.15 K, x1 = 0.2041 | 738.38 ± 0.55 | –
283.15 K, x1 = 0.3003 | – | 0.855 ± 0.01
283.15 K, x1 = 0.3077 | 739.1 ± 0.54 | –
283.15 K, x1 = 0.3999 | 739.86 ± 0.54 | –
283.15 K, x1 = 0.4013 | – | 0.779 ± 0.01
283.15 K, x1 = 0.4992 | – | 0.713 ± 0.009
283.15 K, x1 = 0.5005 | 740.87 ± 0.54 | –
283.15 K, x1 = 0.6005 | – | 0.643 ± 0.009
283.15 K, x1 = 0.6066 | 742.2 ± 0.53 | –
283.15 K, x1 = 0.6866 | 743.44 ± 0.53 | –
283.15 K, x1 = 0.7 | – | 0.575 ± 0.009
283.15 K, x1 = 0.7973 | 745.55 ± 0.53 | –
283.15 K, x1 = 0.8005 | – | 0.513 ± 0.009
283.15 K, x1 = 0.8996 | – | 0.452 ± 0.009
283.15 K, x1 = 0.8999 | 748.12 ± 0.53 | –
283.15 K, x1 = 1 | 751.02 ± 0.51 | –
288.15 K, x1 = 0.1016 | – | 0.923 ± 0.01
288.15 K, x1 = 0.1019 | 734.04 ± 0.55 | –
288.15 K, x1 = 0.2002 | – | 0.856 ± 0.01
288.15 K, x1 = 0.2041 | 734.47 ± 0.55 | –
288.15 K, x1 = 0.3003 | – | 0.793 ± 0.01
288.15 K, x1 = 0.3077 | 735.1 ± 0.55 | –
288.15 K, x1 = 0.3999 | 735.77 ± 0.55 | –
288.15 K, x1 = 0.4013 | – | 0.726 ± 0.01
288.15 K, x1 = 0.4992 | – | 0.664 ± 0.009
288.15 K, x1 = 0.5005 | 736.66 ± 0.54 | –
288.15 K, x1 = 0.6005 | – | 0.601 ± 0.009
288.15 K, x1 = 0.6066 | 737.84 ± 0.54 | –
288.15 K, x1 = 0.6866 | 738.97 ± 0.54 | –
288.15 K, x1 = 0.7 | – | 0.54 ± 0.009
288.15 K, x1 = 0.7973 | 740.88 ± 0.54 | –
288.15 K, x1 = 0.8005 | – | 0.481 ± 0.009
288.15 K, x1 = 0.8996 | – | 0.426 ± 0.009
288.15 K, x1 = 0.8999 | 743.23 ± 0.54 | –
288.15 K, x1 = 1 | 745.85 ± 0.52 | –
293.15 K, x1 = 0.1016 | – | 0.855 ± 0.01
293.15 K, x1 = 0.1019 | 730.2 ± 0.56 | –
293.15 K, x1 = 0.2002 | – | 0.795 ± 0.01
293.15 K, x1 = 0.2041 | 730.55 ± 0.56 | –
293.15 K, x1 = 0.3003 | – | 0.743 ± 0.009
293.15 K, x1 = 0.3077 | 731.09 ± 0.55 | –
293.15 K, x1 = 0.3999 | 731.66 ± 0.55 | –
293.15 K, x1 = 0.4013 | – | 0.678 ± 0.009
293.15 K, x1 = 0.4992 | – | 0.622 ± 0.009
293.15 K, x1 = 0.5005 | 732.44 ± 0.55 | –
293.15 K, x1 = 0.6005 | – | 0.563 ± 0.009
293.15 K, x1 = 0.6066 | 733.47 ± 0.55 | –
293.15 K, x1 = 0.6866 | 734.47 ± 0.55 | –
293.15 K, x1 = 0.7 | – | 0.507 ± 0.009
293.15 K, x1 = 0.7973 | 736.17 ± 0.54 | –
293.15 K, x1 = 0.8005 | – | 0.454 ± 0.009
293.15 K, x1 = 0.8996 | – | 0.402 ± 0.009
293.15 K, x1 = 0.8999 | 738.3 ± 0.54 | –
293.15 K, x1 = 1 | 740.65 ± 0.53 | –
298.15 K, x1 = 0.1016 | – | 0.797 ± 0.01
298.15 K, x1 = 0.1019 | 726.35 ± 0.57 | –
298.15 K, x1 = 0.2002 | – | 0.742 ± 0.009
298.15 K, x1 = 0.2041 | 726.62 ± 0.56 | –
298.15 K, x1 = 0.3003 | – | 0.692 ± 0.009
298.15 K, x1 = 0.3077 | 727.06 ± 0.56 | –
298.15 K, x1 = 0.3999 | 727.53 ± 0.56 | –
298.15 K, x1 = 0.4013 | – | 0.635 ± 0.009
298.15 K, x1 = 0.4992 | – | 0.584 ± 0.009
298.15 K, x1 = 0.5005 | 728.19 ± 0.56 | –
298.15 K, x1 = 0.6005 | – | 0.531 ± 0.009
298.15 K, x1 = 0.6066 | 729.07 ± 0.55 | –
298.15 K, x1 = 0.6866 | 729.94 ± 0.55 | –
298.15 K, x1 = 0.7 | – | 0.479 ± 0.009
298.15 K, x1 = 0.7973 | 731.44 ± 0.55 | –
298.15 K, x1 = 0.8005 | – | 0.428 ± 0.009
298.15 K, x1 = 0.8996 | – | 0.379 ± 0.009
298.15 K, x1 = 0.8999 | 733.33 ± 0.55 | –
298.15 K, x1 = 1 | 735.4 ± 0.54 | –
303.15 K, x1 = 0.1016 | – | 0.744 ± 0.009
303.15 K, x1 = 0.1019 | 722.46 ± 0.57 | –
303.15 K, x1 = 0.2002 | – | 0.695 ± 0.009
303.15 K, x1 = 0.2041 | 722.68 ± 0.57 | –
303.15 K, x1 = 0.3003 | – | 0.65 ± 0.009
303.15 K, x1 = 0.3077 | 723.02 ± 0.57 | –
303.15 K, x1 = 0.3999 | 723.38 ± 0.56 | –
303.15 K, x1 = 0.4013 | – | 0.597 ± 0.009
303.15 K, x1 = 0.4992 | – | 0.55 ± 0.009
303.15 K, x1 = 0.5005 | 723.93 ± 0.56 | –
303.15 K, x1 = 0.6005 | – | 0.5 ± 0.009
303.15 K, x1 = 0.6066 | 724.65 ± 0.56 | –
303.15 K, x1 = 0.6866 | 725.39 ± 0.56 | –
303.15 K, x1 = 0.7 | – | 0.452 ± 0.009
303.15 K, x1 = 0.7973 | 726.66 ± 0.56 | –
303.15 K, x1 = 0.8005 | – | 0.405 ± 0.009
303.15 K, x1 = 0.8996 | – | 0.358 ± 0.009
303.15 K, x1 = 0.8999 | 728.32 ± 0.55 | –
303.15 K, x1 = 1 | 730.1 ± 0.55 | –
308.15 K, x1 = 0.1016 | – | 0.698 ± 0.009
308.15 K, x1 = 0.1019 | 718.59 ± 0.58 | –
308.15 K, x1 = 0.2002 | – | 0.653 ± 0.009
308.15 K, x1 = 0.2041 | 718.72 ± 0.58 | –
308.15 K, x1 = 0.3003 | – | 0.606 ± 0.009
308.15 K, x1 = 0.3077 | 718.96 ± 0.57 | –
308.15 K, x1 = 0.3999 | 719.22 ± 0.57 | –
308.15 K, x1 = 0.4013 | – | 0.562 ± 0.009
308.15 K, x1 = 0.4992 | – | 0.519 ± 0.009
308.15 K, x1 = 0.6005 | – | 0.474 ± 0.009
308.15 K, x1 = 0.7 | – | 0.428 ± 0.009
308.15 K, x1 = 0.8005 | – | 0.382 ± 0.009
